Source: US12697366B2, “Thermogenic compositions and methods” (Ohio State Innovation Foundation, priority 2016, dated 2026)

How the values were obtained:
[1] = tested on: 3T3-L1 adipocytes; test: LTA axon guidance gene expression in 3T3-L1 adipocytes (NanoString mouse innervation panel); assay type: cell-based; settings: 24 hrs; for Efna5 and Epha4 expression: TTNPB 50 nM or BMS493 100 nM
Procedure: FIG. 5A to 5I show retinoids regulate the LTA axon guiding secretome via ephrin A5. FIG. 5A: DRG neurons were cultured in DRG culture medium with secretome from Aldh1a1^−/− adipocytes (1/1, v/v) that were treated with or without RA (100 nM). RA was added to Aldh1a1^−/− differentiation medium (Day 0, 2, 5). To prepare this secretome, medium was collected for last 24 hours. Representative images were selected from three independent experiments. Average neurite growth indices were measured by XTI microscopy in DRG neurons in DRG culture medium containing veh (white bar), NGF (vertical lined bar), or Aldh1a1^−/− secretome treated without (black bar) or with RA (hatched bar). An asterisk indicates P<0.05; Mann-Whitney U test. FIG. 5B: 3T3-L1 adipocytes (n=3) were cultured in differentiation medium for 4 days. At day 5, medium was replaced by UV-treated 1% FBS-contained DMEM with and without Rald (30 nM). 24 hrs post stimulation, cells were harvested for mRNA. The gene expression was measured by the customized NanoString mouse innervation panel. […] Gene expression was measured by the NanoString mouse innervation panel. […] Protein levels of ephrin-A5 ligand (EFNA5) in medium EFNA5 and β-actin in cell lysates were analyzed by Western blot at Day 0, 2, 4, and 6. FIG. 5F: Plasma from WT and Aldh1a1^−/− mice (Table 1, Study 4) was measured by EFNA5 ELISA (n=5 per group) Table 1, Study 4. […] FIG. 5H: Tyrosine hydroxylase (TH) protein levels was analyzed in whole subcutaneous (Western blot insert) and iAb fat pads from mice injected with PBS (n=3) or EFNA5 (n=4, Table 1, Study 5) by Western blot. […] FIG. 5I: Heat (metabolic rate) was measured in PBS- and EFNA5-injected mice from Study 4 after 4° C. exposure by an open circuit indirect calorimetry treadmill (basal metabolic rate for 42 h is shown in FIG. 9C). […]
NanoString's nCounter analysis (NanoString Technologies) system performed direct detection of target molecules from a single sample using color-coded molecular barcodes, giving a digital quantification of the number of target molecules as described before (Shen et al., 2015, PMID: 25620076). […]

[2] = tested on: 3T3-L1 preadipocytes; test: FD-glucose uptake in 3T3-L1 preadipocytes; assay type: cell-based, mouse; settings: 30 mins; insulin 10 μg/ml, EREG 50 ng/ml, forskolin 4 μg/ml
Procedure: Non-differentiated, 90% confluent 3T3-L1 cells were starved with glucose-deprived medium for 40 min. Then cells were treated in the presence and absence of different concentrations of nanoscaffold #2 and bovine insulin (200 μg/mL), all of reagents dissolved in the same glucose-deprived medium but containing fluorescent-D (FD)-glucose for 80 min. Thereafter, the FD glucose uptake was measured according to manufacturer's instructions (Cayman Chemical, USA, cat #600471). […] Non-differentiated, 90% confluent 3T3-L1 cells treated in the presence and absence of different concentrations of nanoscaffold #2 and bovine insulin (10 μg/mL) or mouse epiregulin (EREG, 0.05 μg/mL) and incubated for 24 h. Then cells were starved with glucose-deprived medium for 40 min and, then incubated with fluorescent-D (FD)-glucose for 80 min. Thereafter, the FD glucose uptake was measured according to manufacturer's instructions (Cayman Chemical, USA, cat #600471). Data are shown as percent of uptake in the presence of insulin (100%).
Non-differentiated, 90% confluent 3T3-L1 cells treated in the presence of bovine insulin (10 μg/mL), mouse epiregulin (EREG, 0.05 μg/mL), or their combinations and incubated for 24 h. Then cells were starved with glucose-deprived medium for 40 min and, then incubated with fluorescent-D (FD)-glucose for 80 min. Thereafter, the FD glucose uptake was measured according to manufacturer's instructions (Cayman Chemical, USA, cat #600471).
Non-differentiated, 90% confluent 3T3-L1 cells were starved with glucose-deprived medium for 50 min. Then cells were treated in the presence and absence of different concentrations of mouse recombinant IGFBP4 with and without nanoscaffold #2 and human insulin (10 μg/mL). All of reagents were dissolved in the same glucose-deprived medium but containing fluorescent-D (FD)-glucose for 90 min. Thereafter, the FD glucose uptake was measured according to manufacturer's instructions (Cayman Chemical, USA, cat #600471).
Glucose uptake assay was performed using glucose uptake cell-based assay kit (Cayman Chemical, Ann Arbor, MI). 3T3-L1 or human preadipocytes were cultured at a density of 5×10^4 per well into a 96-well plate (n=7) in high glucose media and grown overnight. Old cell culture medium was removed the next day and washed with PBS to remove residual glucose. Supplied 2-deoxy-2-[(7-nitro-2,1,3-benzoxadiazol-4-yl)amino]-D-glucose) (2-NBDG) was diluted to 150 μg/mL in DMEM medium without glucose, phenol red, L-glutamine, sodium pyruvate, and HEPES (Life technologies, Grand Island, New York). 100 μL of 2-NBDG glucose free medium with or without recombinant EREG and other treatments was added to the plated cells. After incubating at 37° C. for 30 minutes, cells were washed gently two times with 200 μL of glucose assay buffer. 100 μL of the assay buffer was added to each well and measured for fluorescence at an excitation/emission of 485/535 nm.
Fluorescence glucose uptake (FD-glucose assay) was performed as described PMID: 32065973, using insulin, 1.7 μM and different AACs at concentration 0.1 μM.
FD-glucose uptake in mouse 3T3-L1 preadipocytes (n=8 per treatment) treated with vehicle (Veh; PBS, open bar) or hINS (1.7 μM), mouse leptin (mLep; 12.5 nM, hatched bar), or AAC2 (0.1 μM black bar) in the presence and absence of GLUT1 inhibitor (BAY-876; 10 nM in DMSO). Cells were pre-treated with or without BAY-876 for 40 min and then FD glucose and treatment reagents were added for additional 80 min of incubation. Data (%) was normalized to FD-glucose uptake in control (Veh) 3T3-L1 cells without inhibitor (100%). Student's independent t-test.

[3] = tested on: PPARα-LBD; test: PPARα-LBD luciferase reporter in transiently transfected HEK293 cells; assay type: cell-based, human; settings: EREG 50 ng/mL; EGFR-I 10 μM, MAPK-I 10 μM, HSL-I 10 μM, SRC-I 1 μM, PI3K-I 100 nM
Procedure: FIGS. 11A to 11I show adipokine Ereg is bilaterally associated with obesity and thermogenesis and activates PPARα. […] Microarray gene analysis was performed using Affymetrix microarray. FIG. 11B: Ereg expression was measured in non-differentiated and differentiated (day 5) 3T3-L1 adipocytes (Mann-Whitney test) using a customized NanoString mouse panel. FIG. 11C: Ereg expression was measured in differentiated (day 5) 3T3-L1 and Aldh1a1^−/− adipocytes by Taqman and normalized to TATA box protein (TBP). FIG. 11D: Plasma EREG concentrations were measured in mice from Study 1 by western blot. […] FIG. 11E: Plasma EREG concentrations were measured and quantified in iAb of WT and ob/ob mice from Study 2 by western blot (n=5 per each group). […] FIG. 11F: EREG was measured in iAb, subcutaneous and brown fat by western blot. Fat pads were dissected from WT mice on regular chow (Study 1). FIG. 11G: Ucp2 and Ucp1 expression was measured in differentiated 3T3-L1 adipocytes (day 5) stimulated with vehicle (PBS) or recombinant EREG (50 ng/mL) added in the differentiation medium I and II. Expression level were measured by Taqman and normalized by TBP. FIGS. 11H and 11I: HEK293 cells were transiently transfected with PPARα-LBD, UASTK-luciferase, and renilla. […] Data represents % PPARα-LBD activation. Asterisks indicate significant difference (p<0.05) compared to vehicle control, #, indicates statistical difference between PPARα-LBD activation by EREG alone and in the presence of inhibitors. Data represent mean±SD. The Mann-Whitney test was used throughout these studies for group comparison.
HEK293 cells ([…] cells, 24-well plates) were used for transient transfection experiments. Cells were transfected with human PPARα-LBD construct, yeast UASTK luciferase reporter (SwitchGear Genomics, Menlo Park, CA), using Fugene (Roche Applied Science, Indianapolis, IN). Transfections were carried out in OptiMeM (Invitrogen, Carlsbad, CA) medium for 12 hours as described previously. Luciferase was measured using Promega assay according to manufacturer's instructions

[4] = tested on: iAb (omental) fat explants; test: LEP release from iAb (omental) fat explants of an obese patient (ELISA); assay type: cell-based, human; settings: EGFR-I, MAPK-I, PI3K-I
Procedure: FIGS. 14A to 14N show EREG induces expression of thermogenic and PPARα-target genes, suppresses inflammatory genes, and stimulates leptin secretion. FIGS. 14A to 14H and 14L: Markers for thermogenesis, adipogenesis, and inflammatory genes were analyzed using homogenates from whole iAb fat pads isolated from Veh- (white bars) and EREG-treated (black bars) DIO mice (Study 3). Gene expression was quantified using a customized NanoString panel. Data represent mean±SD, n.s.,—non-significant. FIG. 14I: LEP was measured in plasma in the same mice by ELISA. Data (mean±SD) are shown as percent to control (Veh, 100%) and is indicated as a dashed line. FIG. 14J: LEP release after stimulation with different concentrations of recombinant human EREGs was measured in explants of iAb (omental) tissue obtained from an obese insulin resistant patient. FIG. 14K: LEP release after stimulation of explants from same donor with and without EREG (50 ng/mL) in the presence and absence of insulin (Ins, 10 μg/mL), MAPK-I, EGFR-I, PI3K-I. Inhibitors concentrations were described in FIG. 1. FIG. 14M: LEP release after stimulation of iAb fat explants (2 h) from WT mice with different concentrations of recombinant mouse EREG. Experiment was repeated in three different WT mice. Data (mean±SD) are shown as percent to control (Veh, 100%). FIG. 14N: LEP release following stimulation of iAb fat explants (2 h) from WT mice with inhibitors of EGFR (10 μM) and MAPK (10 μM) in the presence or absence of EREG (50 ng/ml). Data (mean±SD) are shown as percent to control (Veh, 100%).
Abdominal fat tissue obtained from an obese patient was excised into 35 mg sections for stimulation with EREG. Explants were stimulated with EREG in DMEM containing 1% FBS for 2 h. Media was collected after 2 h, lyophilized and reconstituted in 120 μL deionized water for leptin detection using ELISA kit (Alpco, Salem, NH).

## CC1=C(/C=C/C(C)=C/C=C/C(C)=C/C=O)C(C)(C)CCC1 [retinaldehyde]
[1]; Rald 30 nM
  expression of molecules associated with the LTA-axon guidance secretome: significantly increased

## C=C[C@@]1(C)CC(=O)[C@]2(O)[C@@]3(C)[C@@H](O)CCC(C)(C)[C@@H]3[C@H](O)[C@H](OC(C)=O)[C@@]2(C)O1 [forskolin, reference compound]
[2]
  glucose uptake compared to non-stimulated 3T3-L1 preadipocytes: 245%

## C/C(=C\c1ccc(C(=O)O)cc1)c1ccc2c(c1)C(C)(C)CCC2(C)C [TTNPB]
[1]
  Efna5 and Epha4 expression: suppressed

## COc1ccc(Cl)c(Nc2ncnc3cc(OCC4CCN(C)CC4)c(OC)cc23)c1 [SRC inhibitor, AZM475271]
[3]
  EREG-dependent PPARα-LBD activation in the presence of inhibitor: now effect

## N#CC(=C(/N)Sc1ccccc1N)/C(C#N)=C(\N)Sc1ccccc1N [MAPK inhibitor, U0126]
[3]
  EREG-dependent PPARα-LBD activation in the presence of inhibitor: abolished
[4]
  EREG / insulin mediated LEP release in the presence of inhibitor: inhibited

## CC1(C)CC=C(C#Cc2ccccc2)c2cc(/C=C/c3ccc(C(=O)O)cc3)ccc21 [BMS429]
[1]
  Efna5 and Epha4 expression: induced

## COc1nn(-c2ccc(NC(=O)OCc3ccccc3)c(C)c2)c(=O)o1 [HSL inhibitor, CAY10499]
[3]
  EREG-dependent PPARα-LBD activation in the presence of inhibitor: abolished

## COc1cc2ncnc(Nc3cccc(Cl)c3)c2cc1OC [EGFR inhibitor, Tyrphostin AG1478]
[3]
  EREG-dependent PPARα-LBD activation in the presence of inhibitor: abolished
[4]
  EREG / insulin mediated LEP release in the presence of inhibitor: inhibited
